PMC9503518, “Antibacterial and Antifungal Properties of a Novel Antimicrobial Peptide GK-19 and Its Application in Skin and Soft Tissue Infections Induced by MRSA or Candida albicans” (Pharmaceutics, 2022)
Where no end group is shown, it is not given here.

Legend:
[1] = test system: Candida albicans (C. albicans, ATCC90028); format: cell-based; details: 1 × 10^6 CFU/mL, PDB, 12 h, peptide 0-20 μM, absorbance at 600 nm, n = 5
Excerpt: (§1) Pseudomonas aeruginosa (P. aeruginosa, ATCC27853), Methicillin-Resistant Staphylococcus aureus (MRSA, 2104270609, clinically isolated strain), Escherichia coli (E. coli, ATCC25922), Klebsiella pneumoniae (K. pneumoniae, ATCC700603), Enterococcus faecalis (E. faecalis, ATCC29212), Candida krusei (C. krusei, ATCC6258), Candida albicans (C. albicans, ATCC90028), and Candida glabrata (C. glabrata, ATCCMYA-2950) were obtained from the First Affiliated Hospital of Xi’an Jiaotong University. Bacterial strains were cultured in MHA or MHB. Fungal strains were cultured in PDA or PDB.
(§2) Strains were incubated in MHB or PDB. After growing for 12–16 h at 37 °C, 200 rpm, 100 μL of 1 × 10^6 CFU/mL of the strains was seeded into 96-well plates and incubated with fresh culture medium containing various antimicrobial peptides (peptide concentration: 0, 0.5, 1.0, 2.0, 3.0, 5.0, 10, 15 or 20 μM) for 12 h. Each concentration was repeated five times. Absorbance at 600 nm was measured using the Multilabel Reader Varioskan Flash (Thermo Fisher). […] (1)

[2] = test system: Candida glabrata (C. glabrata, ATCCMYA-2950); format: cell-based; details: 1 × 10^6 CFU/mL, PDB, 12 h, peptide 0-20 μM, absorbance at 600 nm, n = 5
Excerpt: as §1, §2

[3] = test system: Candida krusei (C. krusei, ATCC6258); format: cell-based; details: 1 × 10^6 CFU/mL, PDB, 12 h, peptide 0-20 μM, absorbance at 600 nm, n = 5
Excerpt: as §1, §2

[4] = test system: Enterococcus faecalis (E. faecalis, ATCC29212); format: cell-based; details: 1 × 10^6 CFU/mL, MHB, 12 h, peptide 0-20 μM, absorbance at 600 nm, n = 5
Excerpt: as §1, §2

[5] = test system: Escherichia coli (E. coli, ATCC25922); format: cell-based; details: 1 × 10^6 CFU/mL, MHB, 12 h, peptide 0-20 μM, absorbance at 600 nm, n = 5
Excerpt: as §1, §2

[6] = test system: Klebsiella pneumoniae (K. pneumoniae, ATCC700603); format: cell-based; details: 1 × 10^6 CFU/mL, MHB, 12 h, peptide 0-20 μM, absorbance at 600 nm, n = 5
Excerpt: as §1, §2

[7] = test system: Methicillin-Resistant Staphylococcus aureus (MRSA, 2104270609, clinically isolated strain); format: cell-based; details: 1 × 10^6 CFU/mL, MHB, 12 h, peptide 0-20 μM, absorbance at 600 nm, n = 5
Excerpt: as §1, §2

[8] = test system: Pseudomonas aeruginosa (P. aeruginosa, ATCC27853); format: cell-based; details: 1 × 10^6 CFU/mL, MHB, 12 h, peptide 0-20 μM, absorbance at 600 nm, n = 5
Excerpt: as §1, §2

[9] = Peptide stability in water by HPLC; format: physicochemical; details: 10 mg/mL in water, 37 °C, 200 rpm, 0 and 48 h, HPLC 220 nm, repeated three times
Protocol: Antimicrobial peptides were dissolved in water or rat serum with a concentration of 10 mg/mL. The solution was incubated at 37 °C, 200 rpm for different time periods, and diluted 50 times for the HPLC analysis. In water, the incubation time was 0 h and 48 h. In rat serum, the incubation time was 0, 2, 4, 7, 12, 24 or 48 h. Each incubation condition was repeated three times. HPLC was conducted on a Waters HPLC system, which consisted of a 2996 photodiode array detector, a 2695 separation module and a temperature control column oven. Column: Sinochrom ODS-BP, 5 μm, 4.6 × 250 mm (Dalian Elite Analytical Instruments Co., Ltd., Dalian, China). Mobile phase: A: 100% ACN + 0.1% TFA; B: 100% Water + 0.1% TFA. Gradient elution: 0–20 min, 95% B–100% A; 20–25 min, 100% A. Detection wavelength: 220 nm. Flow rate: 1 mL/min. Sample volume: 50 μL (0.2 mg/mL).

[10] = test system: Human embryonic kidney cells (293)
Protocol: (§3) Rat pulmonary artery smooth muscle cells (RPASMCs, primary cells separated by our laboratory) and human keratinocytes cells (HaCaT cells, Mingjing Biology, Shanghai, China) were cultured in high-glucose Dulbecco’s Modified Eagle Medium (DMEM), supplemented with 10% fetal bovine serum (FBS). Human umbilical vein endothelial cells (HUVECs, BeNa Culture Collection, Kunshan City, China) were cultured in the MCDB131 medium supplemented with 20% FBS and growth factor additives. Human embryonic kidney cells (293, Procell Life Science & Technology Co., Ltd., Wuhan, China) were cultured in minimum Eagle’s medium (MEM) supplemented with 10% FBS. All cells were cultured at 37 °C, with 5% CO2. All animals used in this study were supplied by the Medical Animal Test Center of Xi’an Jiaotong University and study protocols were approved by the Institutional Animal Care and Use Committee of the Ethics Committee of Health Science Center, Xi’an Jiaotong University (Ethical approval code: 2017-609).
(§4) Cells were inoculated in 96-well plates at 5 × 10^3 cells/well and cultured at 37 °C under 5% CO2. The supernatant was removed, and the cells were washed three times with PBS. Next, 100 μL of fresh culture medium containing different antimicrobial peptides was added (peptide concentration: 0, 1.0, 2.0, 5.0, 10, 25, 50 and 100 μM). Each concentration was repeated five times. Then, 10 μL of CCK-8 reagent was added 48 h later, followed by another two hours of incubation. The absorbance at 450 nm was measured using the same Multilabel Reader. Cellular growth viability was calculated using the following equation:Viability (%) = (mean absorbance value of treatment group − mean absorbance value of blank group group)/(mean absorbance value of control group − mean absorbance value of blank group) × 100. (2)

[11] = test system: Human umbilical vein endothelial cells (HUVECs)
Protocol: as §3, §4

[12] = test system: Rat pulmonary artery smooth muscle cells (RPASMCs)
Protocol: as §3, §4

[13] = test system: human keratinocytes cells (HaCaT cells)
Protocol: as §3, §4

## GFLFKLIPKAIKKLISKFK [GK-19]
[1]
  Minimum inhibitory concentration (MIC), C. albicans: 10 µM
[2]
  Minimum inhibitory concentration (MIC), C. glabrata: 10 µM
[3]
  Minimum inhibitory concentration (MIC), C. krusei: 5 µM
[4]
  Minimum inhibitory concentration (MIC), E. faecalis: 3 µM
[5]
  Minimum inhibitory concentration (MIC), E. coli: 3 µM
[6]
  Minimum inhibitory concentration (MIC), K. pneumoniae: 5 µM
[7]
  Minimum inhibitory concentration (MIC), MRSA: 5 µM
[8]
  Minimum inhibitory concentration (MIC), P. aeruginosa: 5 µM
[9]
  time for which structural stability was retained in water: ≥ 48 h
[10]
  cytotoxicity at the effective antimicrobial concentration, 293 cells: almost no apoptotic cells
[10]; 100 µM
  cell viability, 293 cells: less than 20%
[11]
  cytotoxicity at the effective antimicrobial concentration, HUVECs: almost no apoptotic cells
[11]; 100 µM
  cell viability, HUVECs: less than 20%
[12]
  cytotoxicity at the effective antimicrobial concentration, RPASMCs: almost no apoptotic cells
[12]; 100 µM
  cell viability, RPASMCs: less than 20%
[13]
  cytotoxicity at the effective antimicrobial concentration, HaCaT: almost no apoptotic cells
[13]; 48 h, 100 μM
  cells surviving, HaCaT: more than 42%
